Results from patent US4663458A, “Water soluble salt composition of m-AMSA” (Bristol-Myers Company, priority 1985, dated 1987).
Structures can show the parent of a compound that is named as a salt.

Assays:
animal tumor systems = conditions: Cain et al., Europ. J. Cancer 10:539-549 (1974); cited from earlier work
[1] = prior art; cited from earlier work
[2] = Aqueous solubility of m-AMSA base and salts
[3] = Storage stability / precipitation of m-AMSA lactate aqueous solutions

Question: Which antitumor activity (animal tumor systems) does the source give for `COc1cc(NS(C)(=O)=O)ccc1Nc1c2ccccc2nc2ccccc12` [m-AMSA, 4'9-(acridinylamino) methanesulfon-m-anisidide] here?
Answer: significant antitumor activity

Question: What about the solubility in water [1] of the same compound?
Answer: very limited solubility in water

Question: For `COc1cc(NS(C)(=O)=O)ccc1Nc1c2ccccc2nc2ccccc12` [m-AMSA L(+)-lactate monohydrate salt], which reconstitution rates [2] is on record?
Answer: excellent

Question: And the solubility ([2]; water)?
Answer: ~2500 µg/mL

Question: What about the stability ([3]; for use as an intravenous drug) of the same compound?
Answer: the stability necessary for use as an intravenous drug

Question: With `COc1cc(NS(C)(=O)=O)ccc1Nc1c2ccccc2nc2ccccc12` [monohydrochloride] as the compound, how does the solubility in water [1] read?
Answer: insufficiently water-soluble

Question: Which “precipitation under extended storage” value ([3]; concentrations as high as 5 mg/ml, extended storage at 24° C.) does the source give for `COc1cc(NS(C)(=O)=O)ccc1Nc1c2ccccc2nc2ccccc12` [m-AMSA lactate salts] here?
Answer: can result in precipitates

Question: For `COc1cc(NS(C)(=O)=O)ccc1Nc1c2ccccc2nc2ccccc12` [monomethanesulfonate], which solubility in water [1] is on record?
Answer: insufficiently water-soluble
